# Laboratory results as given in patent US20130317009A1 (priority 2012, published 2013).
# Several values for one entry are separate records, joined by “and”; a condition that tells them apart may be missing. Identical values can stand only once. Counter-ions that a name gives are not always drawn.
# What was measured:
# rat = assay: animal or person; format: in vivo; details: for ED50: Rattus norvegicus, 0.25 h, read-out: ED50 (95% CI) second pharmacologically active ingredient
# male Sprague-Dawley rats = details: rat, in vivo
SMILES,ED50 (rat; ip) [mg/kg],"timepoint of peak effect (rat; rat, in vivo) [min p. appl.]","ED50 (95% CI) second pharmacologically active ingredient (rat; rat, in vivo, ip)",% MPE (Maximum possible effect) 60 min. (male Sprague-Dawley rats) [% MPE],% MPE (Maximum possible effect) 180 min. (male Sprague-Dawley rats) [% MPE],% MPE (Maximum possible effect) 30 min. (male Sprague-Dawley rats; dihydrochloride)
"CC[C@@H](C(N)=O)N1CCCC1=O [Levetiracetam, levetiracetam]",986,15,,,,
NC(=O)N1c2ccccc2C=Cc2ccccc21 [carbamazepine],30,15,,,,
COC[C@@H](NC(C)=O)C(=O)NCc1ccccc1 [lacosamide],35.3,15,,,,
Nc1nnc(-c2cccc(Cl)c2Cl)c(N)n1 [lamotrigine],30,15,35253 μg/kg and 35253 (38082-32740) μg/kg,,,
CCOC(=O)Nc1ccc(NCc2ccc(F)cc2)cc1N [retigabine dihydrochloride],5.09,15,,−2.0 ± 7.9,−2.8 ± 8.0,23.1 % MPE and 23.1 ± 5.0 % MPE
